Holding throughout (format): cell-based
In one assay the test system is human glioma U87 cells. As to the kind of experiment: Tumor cell vacuolization (methuosis) scoring, U87. More on the design: key to Vacuolation Score: 5 scores were given when obvious vacuolization occurred at 10 nM; 4 scores at 31.6 nM; 3 scores at 100 nM; 2 scores at 316 nM; 1 score at 1000 nM; 0 score was given if no vacuolation occurred at any concentration. The conditions noted are these: U87 cells; for Vacuolation Score: 0.01-3.160 μM, 96 hours, microscope. As for the experimental part:
FIG. 2. Vacuolization of tumor cells. 100 microliter culture medium (RPMI1640, 2 mmol glutamine, 10% fetal bovine serum) containing 10^3 human colon adenocarcinoma cells (HCT15) or human brain glioma cells (U87) and a solvent DMSO control or 100 nM #40 compound (L16) was plated into a 96-well cell culture plate, and cell morphological image was taken under a phase contrast microscope after cultured at 5% CO2 and 37° C. for 96 hours.
Some cells gradually became round and eventually bursted. These changes are consistent with the features of cell death by methuosis (FIG. 2).
In order to compare the ability of different compounds to cause cell vacuolization, 100 μL culture media (RPMI1640, 2 mmol glutamine, 10% fetal bovine serum) comprising 10^3 human glioma U87 cells and final concentrations of 0.01, 0.0316, 0.1, 0.316, 1.0, 3.160 μM respectively of the compounds to be tested were inoculated into a 96-well culture plate. After cultured at 5% CO2 and 37° C. for 96 hours, cell morphology was observed under a high-magnification microscope, and the ability of the compounds to cause cell vacuolization was scored. 5 scores were given when obvious vacuolization occurred at 10 nM, 4 scores at 31.6 nM, 3 scores at 100 nM, 2 scores at 316 nM, 1 score at 1000 nM, and 0 score was given if no vacuolation occurred at any concentration.

Assay [1] concerns cell lines of human non-small cell lung cancer (H522). Nature of the assay: In vitro antineoplastic activity, MTT experiment, H522. Particulars: H522 cells, 48 hours, highest concentration tested 31.6 μM (>30: inhibition rate <50%). As for the experimental part: (§1) MTT, RPM1640 culture medium, fetal bovine serum, 96-well plate, CO2 thermostatic incubator, American BIO-RAD680 microplate reader, cell lines of human non-small cell lung cancer (H522), and cell lines of human brain glioma (U87) were all obtained commercially.
(§2) (1) Cell inoculation: A single cell suspension was prepared with culture media supplemented with 10% fetal bovine serum, plated into a 96-well plate with 5000 cells per well, each well having a volume of 100 μL, and cultured overnight.
(§3) (2) Preparation of compound solutions: a DMSO stock solution of a compound was diluted on a sterile bench with a culture medium into 5 concentrations to be tested, wherein a double dilution was employed between two adjacent concentrations.
(§4) (3) The compound solutions of various concentrations were added into the 96-well plate cultured overnight, with 100 μL added per well, triplicated wells for each concentration. Since the peripheral wells can have edge effect and are susceptible to contamination, no cells or compounds were added thereto; instead, 100 μL culture solution was added as a blank. Additionally, 100% wells were set to contain the cells and 100 μL culture media without any compound. The plates were incubated in a thermostatic incubator at 37° C. for 48 hours.
(§5) (4) Staining: 10 μL MTT solution (5 mg/mL, prepared with PBS) was added into the 96-well plate for staining. After incubation for 4 hours, centrifugation was performed at 2500 rpm for 10 minutes. Then, a multiple pipette was used to suck the culture solution out of the wells carefully without sucking out the cells while the pipette tip faced downward. 150 μL DMSO was added and shaken on a shaker for 5-10 minutes. Crystals were allowed to dissolve fully, and an OD value for each well was measured using the microplate reader at 570 nm. The inhibition rate was calculated as follows: Inhibition rate (%)=(average OD value of 100% wells−average OD value of compound wells)/(average OD value of 100% wells−average OD value of blank wells)×100%

For assay [2], the system named is cell lines of human brain glioma (U87). Nature of the assay: In vitro antineoplastic activity, MTT experiment, U87. As for the experimental part: as §1, §2, §3, §4, §5
Setting [3] is: U87 cells, MTT, 48 hours, highest concentration tested 31.6 μM, read-out: IC50(μM) U87.
The mark [4] stands for this setting: ability to inhibit cell proliferation, U87 (FIG. 3), unit inferred, read-out: IC50.

Structures are written as SMILES. Read-outs that look alike come from different tables or passages of the source. A value given as a limit tells only on which side of the number the result lay.

With `O=C(Nc1ccc(Cl)cc1)Nc1ccc(Nc2nc(/C=C/c3ccccc3)nc(N3CCOCC3)n2)cc1` [L1, (E)-1-(4-chlorophenyl)-3-(4-(4-(morpholin-1-yl)-6-styrenyl-1,3,5-triazinyl-2-amino)phenyl)urea], the “Vacuolation Score” value in the assay with human glioma U87 cells is on record as 5 (5 scores were given when obvious vacuolization occurred at 10 nM). Moreover, the “ability to cause cell vacuolization (in words)” value in the assay on human glioma U87 cells (among the compounds tested) was “strongest ability to cause cell vacuolization”. Also, the IC50 was determined as 3.26 ± 0.34 µM in assay [1], 4.79 ± 0.55 µM in assay [2] (setting [3]) and 3.53 µM in assay [2] (setting [4]).

For `O=C(Nc1ccc(F)cc1)Nc1ccc(Nc2nc(/C=C/c3ccccc3)nc(N3CCOCC3)n2)cc1` [L2, (E)-1-(4-fluorophenyl)-3-(4-(4-(morpholin-1-yl)-6-styrenyl-1,3,5-triazinyl-2-amino)phenyl)urea], in the assay on human glioma U87 cells, the “Vacuolation Score” value worked out at 4.5. In addition, the IC50 in assay [1] amounted to 2.8 ± 0.21 µM; in assay [2] (setting [3]), 4.75 ± 0.87 µM; in assay [2] (setting [4]), 4.74 µM.

With `CN1CCN(c2nc(/C=C/c3ccccc3)nc(Nc3ccc(NC(=O)Nc4ccc(Cl)cc4)cc3)n2)CC1` [L3, (E)-1-(4-chlorophenyl)-3-(4-(4-(4-methylpiperazin-1-yl)-6-styrenyl-1,3,5-triazinyl-2-amino)phenyl)urea], the “Vacuolation Score” value with human glioma U87 cells was 0. Besides, the figures for the IC50 in assay [1], in assay [2] (setting [3]) and in assay [2] (setting [4]) were more than 30 µM, 10.6 ± 1.2 µM and more than 10 µM, respectively.

Regarding `CN1CCN(c2nc(/C=C/c3ccccc3)nc(Nc3ccc(NC(=O)Nc4ccc(F)cc4)cc3)n2)CC1` [L4, (E)-1-(4-fluorophenyl)-3-(4-(4-(4-methylpiperazin-1-yl)-6-styrenyl-1,3,5-triazinyl-2-amino)phenyl)urea], in the assay on human glioma U87 cells, the “Vacuolation Score” value is 0. Also, the IC50 in assay [1] was 1.92 ± 0.19 µM; in assay [2] (setting [3]), 1.19 ± 0.07 µM; in assay [2] (setting [4]) it was 1.19 µM.

`O=C(Nc1ccc(Cl)cc1)Nc1ccc(Nc2nc(/C=C/c3ccccc3)nc(N3CC(O)C3)n2)cc1` [L5, (E)-1-(4-chlorophenyl)-3-(4-(4-(3-hydroxyazetidin-1-yl)-6-styrenyl-1,3,5-triazinyl-2-amino)phenyl)urea]: the “Vacuolation Score” value in the assay with human glioma U87 cells came to 0. The IC50 came out at 5.03 ± 0.89 µM in assay [1], 3.32 ± 0.45 µM in assay [2] (setting [3]) and 3.28 µM in assay [2] (setting [4]).

For `O=C(Nc1ccc(Cl)cc1)Nc1ccc(Nc2nc(/C=C/c3cccc(Cl)c3)nc(N3CCOCC3)n2)cc1` [L6, (E)-1-(4-chlorophenyl)-3-(4-(4-(morpholin-1-yl)-6-(3-chlorostyrenyl)-1,3,5-triazinyl-2-amino)phenyl)urea], the “Vacuolation Score” value in the assay with human glioma U87 cells is on record as 4 (4 scores at 31.6 nM). For the same compound, the results for the IC50 in assay [1], in assay [2] (setting [3]) and in assay [2] (setting [4]) were 5.25 ± 0.45 µM, 3.63 ± 0.11 µM and 3.63 µM, respectively.

In the case of `O=C(Nc1ccc(F)cc1)Nc1ccc(Nc2nc(/C=C/c3cccc(Cl)c3)nc(N3CCOCC3)n2)cc1` [L7, (E)-1-(4-fluorophenyl)-3-(4-(4-(morpholin-1-yl)-6-(3-chlorostyrenyl)-1,3,5-triazinyl-2-amino)phenyl)urea], in the assay with human glioma U87 cells, the “Vacuolation Score” value was 4 (4 scores at 31.6 nM). For the same compound, the IC50 in assay [1] came out at 1.42 ± 0.12 µM; in assay [2] (setting [3]) it was 1.33 ± 0.13 µM; in assay [2] (setting [4]) it was 1.32 µM.

For `CN1CCN(c2nc(/C=C/c3cccc(Cl)c3)nc(Nc3ccc(NC(=O)Nc4ccc(Cl)cc4)cc3)n2)CC1` [L8, (E)-1-(4-chlorophenyl)-3-(4-(4-(4-methylpiperazin-1-yl)-6-(3-chlorostyrenyl)-1,3,5-triazinyl-2-amino)phenyl)urea], in the assay with human glioma U87 cells, the “Vacuolation Score” value is 0. Besides, the figures for the IC50 in assay [1], in assay [2] (setting [3]) and in assay [2] (setting [4]) were 1.82 ± 0.09 µM, 1.21 ± 0.16 µM and 1.21 µM, respectively.

As for `O=C(Nc1ccc(Nc2nc(/C=C/c3ccccc3)nc(N3CCOCC3)n2)cc1)Nc1ccc(C(=O)O)cc1` [compound 14, (E)-1-(4-carboxyphenyl)-3-(4-(4-(morpholin-1-yl)-6-styrenyl-1,3,5-triazinyl-2-amino)phenyl)urea], in the assay on human glioma U87 cells, the “Vacuolation Score” value amounted to 1.5.

As for `Cl.O=C(Nc1ccc(Cl)cc1)Nc1ccc(Nc2nc(/C=C/c3cccc([N+](=O)[O-])c3)nc(N3CCOCC3)n2)cc1` [compound 68], the “Vacuolation Score” value in the assay with human glioma U87 cells was 4 (4 scores at 31.6 nM). Also, the IC50 in assay [2] (Homo sapiens, ability to inhibit cell proliferation, U87 (FIG. 3), unit inferred, read-out: IC50) worked out at 3.28 µM.

A word on the IC50: it is the concentration that inhibits the measured activity by half.

The values above are taken from US11390591B2, “2,4,6-trisubstituted s-triazine compound, preparation method therefor, and use thereof” (Aluda Pharmaceuticals, Inc., priority 2016, dated 2022).
